Assay results as given in US20260042755A1, “GPR6 INVERSE AGONISTS” (MapLight Therapeutics, Inc., priority 2022, published 2026).
Values belong to the compound of their own block, whether it stands above or below them.

Experiments:
[1] = target: T1, GPR6 (Homo sapiens, UniProt P46095); assay: GPR6 antagonist functional cAMP assay (LANCE Ultra cAMP TR-FRET, CHO cells stably expressing GPR6); assay type: cell-based
T1 construct: expressed in transfected cells; host or cells: CHO cells
Outline: (§1)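 Compounds, at 0.1% final DMSO, acted on the cells for 45 minutes at 37 °C in the presence of the phosphodiesterase inhibitor Ro 20-1724 (150 μM). After lysis and detection, plates were shaken 1 h at room temperature and emission at 665 nm was recorded. Normalized data gave IC50 values.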

[2] = target: T2, GPR3 (Homo sapiens, UniProt P46089); assay: GPR3 antagonist functional cAMP assay (LANCE Ultra cAMP TR-FRET, CHO cells stably expressing GPR3); assay type: cell-based
T2 construct: expressed in transfected cells; host or cells: CHO cells
Outline: as §1

[3] = CHO cells stably expressing GPR6, cAMP assay (Example 24)
[4] = CHO cells stably expressing GPR3, cAMP assay (Example 24)
[5] = CHO cells stably expressing GPR6, cAMP assay
[6] = CHO cells stably expressing GPR3, cAMP assay
[7] = procedure as described in Example 24

T1 sequence (P46095 whole entry): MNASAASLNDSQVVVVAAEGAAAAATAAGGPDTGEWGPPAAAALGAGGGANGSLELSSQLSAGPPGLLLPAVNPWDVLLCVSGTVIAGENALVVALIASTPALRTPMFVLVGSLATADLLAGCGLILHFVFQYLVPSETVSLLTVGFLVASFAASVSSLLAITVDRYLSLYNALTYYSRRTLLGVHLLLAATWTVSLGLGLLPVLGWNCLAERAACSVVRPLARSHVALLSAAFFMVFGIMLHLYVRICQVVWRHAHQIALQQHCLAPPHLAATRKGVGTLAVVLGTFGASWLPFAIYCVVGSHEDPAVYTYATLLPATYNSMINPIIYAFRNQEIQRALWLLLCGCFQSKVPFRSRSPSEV
T2 sequence (P46089 whole entry, species assumed): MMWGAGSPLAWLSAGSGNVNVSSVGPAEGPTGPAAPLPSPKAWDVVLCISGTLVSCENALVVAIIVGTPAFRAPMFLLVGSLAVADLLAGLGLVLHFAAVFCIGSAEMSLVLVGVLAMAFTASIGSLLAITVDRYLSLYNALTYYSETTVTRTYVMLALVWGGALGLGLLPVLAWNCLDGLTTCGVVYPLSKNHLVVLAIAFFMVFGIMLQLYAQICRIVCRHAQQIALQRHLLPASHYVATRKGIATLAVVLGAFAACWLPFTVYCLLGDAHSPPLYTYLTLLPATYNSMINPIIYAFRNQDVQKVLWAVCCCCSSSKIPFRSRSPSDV

Structure (SMILES): CCn1cc(-c2nc3c(nc2N2CCC(Oc4ccc(F)cc4F)CC2)CCN(C(C)=O)C3)cn1 [Compound 220, 1-{2-[4-(2,4-difluorophenoxy)piperidin-1-yl]-3-(1-ethyl-1H-pyrazol-4-yl)-5H,6H,7H,8H-pyrido[3,4-b]pyrazin-6-yl}ethan-1-one]
IC50 [1, 3]: < 100 nM
IC50 [2, 4]: 1000 to 30000 nM

Structure (SMILES): CC(=O)N1CCc2nc(N3CCN(Cc4ccnn4C)CC3)c(-c3cnn(C)c3)nc2C1 [Compound 525, 1-[3-(1-methyl-4-pyrazolyl)-2-{4-[(1-methyl-5-pyrazolyl)methyl]-1-piperazinyl}-5,6,7,8-tetrahydro-1,4,6-triaza-6-naphthyl]-1-ethanone]
IC50 [1, 5]: ≥ 30000 nM
IC50 [2, 6]: ≥ 30000 nM

Structure (SMILES): O=S1(=Nc2ccc(F)cc2F)CCN(c2nc3ccncc3nc2-c2cn[nH]c2)CC1 [Compound 58, 4-(3-(1H-pyrazol-4-yl)pyrido[3,4-b]pyrazin-2-yl)-1-((2,4-difluorophenyl)imino)-1l6-thiomorpholine 1-oxide]
IC50 [1, 3]: 1000 to 30000 nM
IC50 [2, 4]: 1000 to 30000 nM

Structure (SMILES): Cn1cc(-c2nc3c(nc2N2CCC(Oc4ccc(F)cc4F)CC2)CCN(S(C)(=O)=O)C3)cn1 [Compound 211, 4-(2,4-difluorophenoxy)-1-[6-methanesulfonyl-3-(1-methyl-1H-pyrazol-4-yl)-5H,6H,7H,8H-pyrido[3,4-b]pyrazin-2-yl]piperidine]
IC50 [1, 3]: < 100 nM
IC50 [2, 4]: 1000 to 30000 nM

Structure (SMILES): CC(C)(O)[C@H](O)c1cc2nc(N3CCC(=Cc4ccc(F)cc4F)CC3)c(-c3cnn(C4CC4)c3)nc2cn1 (single isomer, unassigned) [Compound 770]
IC50 ([1]; procedure of Example 24): 100 to 1000 nM
IC50 ([2]; procedure of Example 24): 1000 to 30000 nM

Structure (SMILES): Fc1ccc(OC2CCN(c3nc4ccncc4nc3-c3cn[nH]c3)CC2)c(F)c1 [Compound 9, 4-(2,4-difluorophenoxy)-1-[3-(1H-pyrazol-4-yl)pyrido[3,4-b]pyrazin-2-yl]piperidine]
IC50 [1, 7]: 100 to 1000 nM
IC50 [2, 7]: 100 to 1000 nM

Second part, the compound after the results:

IC50 [1, 7]: 1000 to 30000 nM
IC50 [2, 7]: 100 to 1000 nM
Structure (SMILES): CC(=O)N1CCc2nc(N3CCC(Oc4ccc(F)cc4F)CC3)c(-c3cnccn3)nc2C1 [Compound 19, 1-{2-[4-(2,4-difluorophenoxy)piperidin-1-yl]-3-(pyrazin-2-yl)-5H,6H,7H,8H-pyrido[3,4-b]pyrazin-6-yl}ethan-1-one]

IC50 [1, 5]: < 100 nM
IC50 [2, 6]: 1000 to 30000 nM
Structure (SMILES): CC(=O)N1CCc2nc(N3CCN(Cc4cc(F)ccc4F)CC3)c(-c3ccc(F)c(N)n3)nc2C1 [Compound 581, 1-[3-(6-amino-5-fluoro-2-pyridyl)-2-{4-[(2,5-difluorophenyl)methyl]-1-piperazinyl}-5,6,7,8-tetrahydro-1,4,6-triaza-6-naphthyl]-1-ethanone]

IC50 ([1]; procedure of Example 24): 100 to 1000 nM
IC50 ([2]; procedure of Example 24): 1000 to 30000 nM
Structure (SMILES): CC(=O)N1CCc2nc(N3CCC(Oc4ccc(F)cc4F)CC3)c(-c3ccc(F)c(N)n3)nc2C1 [Compound 372, 1-{3-(6-amino-5-fluoro-2-pyridyl)-2-[4-(2,4-difluorophenoxy)-1-piperidyl]-5,6,7,8-tetrahydro-1,4,6-triaza-6-naphthyl}-1-ethanone]

IC50 [1, 3]: 100 to 1000 nM
IC50 [2, 4]: 1000 to 30000 nM
Structure (SMILES): CC(=O)N1CCc2nc(N3CCC(Oc4ccc(F)cc4F)CC3)c(-c3cccc(-c4cn[nH]c4)n3)nc2C1 [Compound 166, 1-{2-[4-(2,4-difluorophenoxy)piperidin-1-yl]-3-[6-(1H-pyrazol-4-yl)pyridin-2-yl]-5H,6H,7H,8H-pyrido[3,4-b]pyrazin-6-yl}ethan-1-one]

IC50 [1, 3]: 100 to 1000 nM
IC50 [2, 4]: 1000 to 30000 nM
Structure (SMILES): COc1cccc(-c2nc3c(nc2N2CCC(Oc4ccc(F)cc4F)CC2)CCN(C(C)=O)C3)n1 [Compound 86, 1-(2-(4-(2,4-difluorophenoxy)piperidin-1-yl)-3-(6-methoxypyridin-2-yl)-7,8-dihydropyrido[3,4-b]pyrazin-6(5H)-yl)ethan-1-one]

IC50 ([1]; procedure of Example 24): 100 to 1000 nM
IC50 ([2]; procedure of Example 24): 1000 to 30000 nM
Structure (SMILES): CC(=O)N1CCc2nc(N3CCN(Cc4ccc(Cl)cc4Cl)CC3)c(-c3ccc(F)c(N)n3)nc2C1 [Compound 637, 1-[3-(6-amino-5-fluoro-2-pyridyl)-2-{4-[(2,4-dichlorophenyl)methyl]-1-piperazinyl}-5,6,7,8-tetrahydro-1,4,6-triaza-6-naphthyl]-1-ethanone]
